According to article PMC9821961, “Ring-Modified Histidine-Containing Cationic Short Peptides Exhibit Anticryptococcal Activity by Cellular Disruption” (Molecules, 2022):
Converted amounts (≈) assume the structure as drawn.

What was measured:
Test in all cases: microbe, parasite or virus in culture
C. neoformans = type: cell-based, Cryptococcus neoformans
Excerpt: (§1) Microbial strains: Microbial strains were procured from National Culture Collection of Pathogenic Fungi (NCCPF) at the Postgraduate Institute of Medical Education & Research (PGIMER), Chandigarh and Microbial Type Culture Collection and Gene bank (MTCC) at the Institute of Microbial Technology (IMTECH), Chandigarh, India. Peptides were screened against five different strains of fungi: viz. Candida albicans (NCCPF400034), Candida glabrata (MTCC 3019), Candida parapsilosis (NCCPF 440002), Candida krusei (NCCPF 440002) and Cryptococcus neoformans (NCCPF250316), and five strains of bacteria: viz. Escherichia coli (MTCC 2961), Staphylococcus aureus (MTCC 3160), Enterococcus faecalis (MTCC 439), Streptococcus pyogenes (MTCC 442) and Pseudomonas aeruginosa (MTCC 3542).
(§2) Growth media: Antifungal susceptibility testing was carried out using standard broth microdilution assays as per the Clinical and Laboratory Standards Institute (CLSI) guidelines for fungi. RPMI 1640 (Sigma), yeast extract, peptone and dextrose (YPED, Himedia) were used as the incubation broths. The cells were diluted to a cell density of 10^3 colony forming unit (CFU/mL) and incubated at 30 °C for 48 h. Furthermore, Muller Hinton (Himedia) media was utilized for bacterial strains and antibacterial activity was evaluated per CLSI guidelines for bacteria. Bacterial cells were diluted to a cell density of 10^5 CFU/mL and incubated at 37 °C for 24 h. Amphotericin B (Himedia, India) and rifampicin (Himedia, India) were used as standard drugs for the evaluation of activity against all the fungal and bacterial strains, respectively.
(§3) The stock solutions of peptides (2 mg/mL) were prepared in DMSO. Specific amounts of peptide from stock solution were added to a 96-well microtiter plate containing 100 μL of growth media and then serially diluted two-fold. A further 100 μL of growth media containing microbial cells were added to each well and incubated at 30–37 °C for 24–48 h. The optical density (OD) was measured at 600 nm using a BioStack Ready (BioTek Instruments, Winooski, VT, USA) microplate reader to analyze microbial growth inhibition, and IC50 and MIC values were calculated. To visualize the growth and inhibition pattern, a solution of 3-(4,5-dimethylthiazol-2-yl)-2,5-diphenyltetrazolium bromide (MTT) in water was added to the plate and incubated for 2–3 h. MTT reacts with the mitochondrial dehydrogenases, which are present only in a viable cell, to give blue colored formazan crystals. Therefore, a darker color indicates a high number of viable cells; however, non-viable cells appear pale or colorless.

C. albicans = type: cell-based, Candida albicans; settings: 48 h
Excerpt: as §1, §2, §3

C. glabrata = type: cell-based, Candida glabrata; settings: 48 h
Excerpt: as §1, §2, §3

C. parapsilosis = type: cell-based, Candida parapsilosis; settings: 48 h
Excerpt: as §1, §2, §3

C. krusei = type: cell-based, Candida krusei; settings: 48 h
Excerpt: as §1, §2, §3

[1] = C. neoformans, lowest test concentration with no detectable growth

| IC50 (C. neoformans; 48 h) [µg/mL] | MIC (C. neoformans; 48 h) [µg/mL] | IC50 (C. albicans) [µg/mL] | MIC (C. albicans) [µg/mL] | IC50 (C. glabrata) [µg/mL] | MIC (C. glabrata) [µg/mL] | IC50 (C. parapsilosis) [µg/mL] | MIC (C. parapsilosis) [µg/mL] | IC50 (C. krusei) [µg/mL] | MIC (C. krusei) [µg/mL] | MIC (C. neoformans; [1]) [µg/mL] | SMILES | Fold reduction of activity (C. neoformans; C. neoformans, on replacing methyl of the tert-butyl moiety with fluorine) [fold] |
| --- | --- | --- | --- | --- | --- | --- | --- | --- | --- | --- | --- | --- |
| >35.2 | >64.0 | >35.2 | >64.0 | >35.2 | >64.0 | >35.2 | >64.0 | >35.2 | >64.0 | – | COC(=O)[C@H](Cc1ncn(Cc2ccc([N+](=O)[O-])cc2)c1I)NC(=O)[C@H](Cc1c[nH]c2ccccc12)NC(=O)OC(C)(C)C [9h] | – |
| 13.53 (≈ 21.2 µM) | – | >35.2 | >64.0 | >35.2 | >64.0 | >35.2 | >64.0 | >35.2 | >64.0 | 24.6 (≈ 38.5 µM) | COC(=O)[C@H](Cc1ncn(Cc2ccc(C(F)(F)F)cc2)c1I)NC(=O)[C@@H](N)Cc1c[nH]c2ccccc12 [10g] | 2.6 |
| >35.2 | >64.0 | >35.2 | >64.0 | >35.2 | >64.0 | >35.2 | >64.0 | >35.2 | >64.0 | – | COC(=O)[C@H](Cc1ncn(Cc2ccc(C(C)(C)C)cc2)c1I)NC(=O)[C@H](Cc1c[nH]c2ccccc12)NC(=O)OC(C)(C)C [9b] | – |
| 17.68 (≈ 30.9 µM) | 32.15 (≈ 56.3 µM) | >35.2 | >64.0 | >35.2 | >64.0 | >35.2 | >64.0 | >35.2 | >64.0 | – | COC(=O)[C@H](Cc1ncn(Cc2ccccc2)c1I)NC(=O)[C@@H](N)Cc1c[nH]c2ccccc12 [10a] | – |
| 18.59 (≈ 26.3 µM) | 33.80 (≈ 47.9 µM) | >35.2 | >64.0 | >35.2 | >64.0 | >35.2 | >64.0 | >35.2 | >64.0 | – | COC(=O)[C@H](Cc1ncn(Cc2cccc(Cl)c2)c1I)NC(=O)[C@H](Cc1c[nH]c2ccccc12)NC(=O)OC(C)(C)C [9l] | – |
| 9.23 (≈ 14.2 µM) | 16.79 (≈ 25.8 µM) | >35.2 | >64.0 | >35.2 | >64.0 | >35.2 | >64.0 | >35.2 | >64.0 | – | COC(=O)[C@H](Cc1ncn(Cc2cccc(Br)c2)c1I)NC(=O)[C@@H](N)Cc1c[nH]c2ccccc12 [10m] | – |
| 6.09 (≈ 10 µM) | 11.08 (≈ 18.2 µM) | >35.2 | >64.0 | >35.2 | >64.0 | >35.2 | >64.0 | >35.2 | >64.0 | – | COC(=O)[C@H](Cc1ncn(Cc2cc(F)cc(F)c2)c1I)NC(=O)[C@@H](N)Cc1c[nH]c2ccccc12 [10j] | – |
| >35.2 | >64.0 | >35.2 | >64.0 | >35.2 | >64.0 | >35.2 | >64.0 | >35.2 | >64.0 | – | COC(=O)[C@H](Cc1ncn(Cc2ccc(C(F)(F)F)cc2)c1I)NC(=O)[C@H](Cc1c[nH]c2ccccc12)NC(=O)OC(C)(C)C [9g] | – |
| 17.78 (≈ 26.5 µM) | 32.34 (≈ 48.2 µM) | >35.2 | >64.0 | >35.2 | >64.0 | >35.2 | >64.0 | >35.2 | >64.0 | – | COC(=O)[C@H](Cc1ncn(Cc2ccccc2)c1I)NC(=O)[C@H](Cc1c[nH]c2ccccc12)NC(=O)OC(C)(C)C [9a] | – |
| 17.70 (≈ 27.7 µM) | 32.18 (≈ 50.3 µM) | >35.2 | >64.0 | >35.2 | >64.0 | >35.2 | >64.0 | >35.2 | >64.0 | – | COC(=O)[C@H](Cc1ncn(Cc2ccccc2C(F)(F)F)c1I)NC(=O)[C@@H](N)Cc1c[nH]c2ccccc12 [10f] | – |
| 23.58 (≈ 29.6 µM) | 42.87 (≈ 53.8 µM) | >35.2 | >64.0 | >35.2 | >64.0 | >35.2 | >64.0 | >35.2 | >64.0 | – | COC(=O)[C@H](Cc1ncn(Cc2cccc(I)c2)c1I)NC(=O)[C@H](Cc1c[nH]c2ccccc12)NC(=O)OC(C)(C)C [9n] | – |
| 10.28 (≈ 16.9 µM) | – | >35.2 | >64.0 | >35.2 | >64.0 | >35.2 | >64.0 | >35.2 | >64.0 | 18.7 (≈ 30.8 µM) | COC(=O)[C@H](Cc1ncn(Cc2ccc(F)c(F)c2)c1I)NC(=O)[C@@H](N)Cc1c[nH]c2ccccc12 [10i] | – |
| 20.39 (≈ 28.6 µM) | 37.08 (≈ 52 µM) | >35.2 | >64.0 | >35.2 | >64.0 | >35.2 | >64.0 | >35.2 | >64.0 | – | COC(=O)[C@H](Cc1ncn(Cc2ccc(C(C)C)cc2)c1I)NC(=O)[C@H](Cc1c[nH]c2ccccc12)NC(=O)OC(C)(C)C [9c] | – |
| 20.71 (≈ 28 µM) | 37.65 (≈ 50.9 µM) | >35.2 | >64.0 | >35.2 | >64.0 | >35.2 | >64.0 | >35.2 | >64.0 | – | COC(=O)[C@H](Cc1ncn(Cc2cccc(C(F)(F)F)c2)c1I)NC(=O)[C@H](Cc1c[nH]c2ccccc12)NC(=O)OC(C)(C)C [9e] | – |
| >35.2 | >64.0 | >35.2 | >64.0 | >35.2 | >64.0 | >35.2 | >64.0 | >35.2 | >64.0 | – | COC(=O)[C@H](Cc1ncn(Cc2ccccc2I)c1I)NC(=O)[C@H](Cc1c[nH]c2ccccc12)NC(=O)OC(C)(C)C [9o] | – |
| 18.16 (≈ 26.3 µM) | 32.02 (≈ 46.4 µM) | >35.2 | >64.0 | >35.2 | >64.0 | >35.2 | >64.0 | >35.2 | >64.0 | – | COC(=O)[C@H](Cc1ncn(Cc2cccc(F)c2)c1I)NC(=O)[C@H](Cc1c[nH]c2ccccc12)NC(=O)OC(C)(C)C [9k] | – |
| 17.62 (≈ 24.9 µM) | 32.05 (≈ 45.3 µM) | >35.2 | >64.0 | >35.2 | >64.0 | >35.2 | >64.0 | >35.2 | >64.0 | – | COC(=O)[C@H](Cc1ncn(Cc2ccc(F)c(F)c2)c1I)NC(=O)[C@H](Cc1c[nH]c2ccccc12)NC(=O)OC(C)(C)C [9i] | – |
